# Where “and” joins values, the source holds several entries; their conditions need not be identical. Equal entries are not always repeated.
# How the values were obtained:
# [1] = In vitro blood-brain barrier permeability assay (BBB kit RBT-24H); type: in vitro ADME, rat
# Method: Therefore, we tested BBB transparency in vitro using the BBB kit RBT-24H (PharmaCo-Cell)[35]. […] Blood-brain barrier permeability assay The blood-brain barrier (BBB) transparency of TH analogs was assessed in vitro using RBT-24H (PharmaCo-Cell)[5] according to the manufacturer 's protocol. […] After 30 min, the assay buffer in the wells mimicking the abluminal side was collected, and the concentration of the compounds was measured using liquid chromatography-mass spectrometry (LC-MS). […] These tips were preconditioned with 20 μL of acetonitrile and 20 μL of 0.1% TFA in purified water. 100 μL of the samples were loaded onto the preconditioned tips, washed with 200 μL of DW, and then eluted with 10 μL of acetonitrile. Triazine (1% vol/vol) was added to the eluent as an internal standard. […] 3 μm; Imtakt, Kyoto, Japan). All the experiments were performed using an Ultimate 3000 UHPLC system coupled with a Q Exactive Plus Orbitrap mass spectrometer (Thermo Fisher Scientific). […] Data were shown as mean ± standard deviation (n=3).
# THRβ = settings: cited from earlier work
# [2] = test system: high-fat diet (HFD)-induced obesity model mice; test: Serum lipid analysis (total cholesterol, triglycerides) in HFD mice; type: in vivo, C57BL/6J mice; design: Serum TC (Fig. 4a), individual mouse values / Serum TG (Fig. 4b), individual mouse values / Serum TC (Fig. 4a), Mean Diff. ND vs. treatment (Tukey) / Serum TC (Fig. 4a), Mean Diff. Vehicle vs. treatment (Tukey) / Serum TC (Fig. 4a), group mean (Mean 2) / Mean Diff., ND vs. treated (Fig. 4b) / Mean Diff., Vehicle vs. treated (Fig. 4b) / Mean (Fig. 4b): unit not given here; settings: for Serum TC (Fig. 4a), group mean (Mean 2) / Mean (Fig. 4b): n=10; for Serum TC (Fig. 4a), Mean Diff. ND vs. treatment (Tukey): ND minus treated; for Serum TC (Fig. 4a), Mean Diff. Vehicle vs. treatment (Tukey): Vehicle minus treated; for Mean Diff., ND vs. treated (Fig. 4b) / Mean Diff., Vehicle vs. treated (Fig. 4b): Tukey's multiple comparisons test; for Mean (Fig. 4b): group mean
# Method: Fig. 4 Effects of TH analogs on the accumulation of lipids in mice. […] After 3 weeks of injection, serum and liver tissues were collected, and the amount of serum cholesterol (a), serum triglycerides (b), liver cholesterol (c), liver triglycerides (d), and liver total lipids (e) were measured.
# [3] = test system: high-fat diet (HFD)-induced obesity model mice; test: Weight of epididymal adipose tissue (visceral fat) in HFD mice; type: in vivo, C57BL/6J mice; settings: for Fig. 3b (weight of epididymal adipose tissue), group mean (Mean 2): n=10; for Fig. 3b (weight of epididymal adipose tissue), group mean (Mean 2) / Fig. 3b (weight of epididymal adipose tissue), Mean Diff. ND vs. treatment (Tukey) / Fig. 3b (weight of epididymal adipose tissue), Mean Diff. Vehicle vs. treatment (Tukey) / Epididymal adipose weight, individual mice (Fig. 3b): in mg (unit assumed); for Fig. 3b (weight of epididymal adipose tissue), Mean Diff. ND vs. treatment (Tukey): ND minus treated; for Fig. 3b (weight of epididymal adipose tissue), Mean Diff. Vehicle vs. treatment (Tukey): Vehicle minus treated
# Method: (§1) Epididymal adipose tissue was weighed.
# (§2) Fig. 3 Effects of intraperitoneal injection of TH analogs on body weight and deposition of visceral fat. […] After three weeks of injection, body weight (a), and weight of the epididymal adipose tissue (b) were measured.
# [4] = test system: high-fat diet (HFD)-induced obesity model mice; test: Body weight of high-fat diet-induced obesity model mice; type: in vivo, C57BL/6J mice; design: Body weight, Mean Diff. ND vs. treated: unit not given here; settings: for Body weight, 95.00% CI of diff. ND vs. treated / Body weight, Mean Diff. ND vs. treated: ND group as comparator; for Body weight, 95.00% CI of diff. ND vs. treated / Body weight, Mean Diff. ND vs. treated / Body weight, 95.00% CI of diff. Vehicle vs. treated / Body weight, Mean Diff. Vehicle vs. treated: Tukey's multiple comparisons test; for Body weight, Mean Diff. Vehicle vs. treated / Body weight, group mean (Fig. 3a) / Body weight, individual mice (Fig. 3a): in g (unit assumed); for Body weight, group mean (Fig. 3a): n 10
# Method: The injection was given 6 h after light on. Food consumption and body weights were measured weekly. Food and water were provided to the animals ad libitum. The animals were treated according to the guidelines of Nagoya University, and all experimental procedures were approved by the Animal Experiment Committee of Nagoya University (A210715-003).
# as §1, §2
# [5] = test system: THR-regulated genes and lipid metabolism-related genes in the liver
# [6] = HFD mice, i.p., dose not given (0.1 or 1 µmol/kg day), 3 weeks
# [7] = HFD mice, 1 μmol/kg day, RT-qPCR, reference gene Rps18
# [8] = liver gene expression, 1µmol dose group vs. Vehicle
smiles,measurement,setting,value
Cn1c(=O)c2c(ncn2C)n(C)c1=O [Caffeine],Abluminal concentration,"[1]; 10 µM on luminal side, 30 min, mean ± standard deviation (n=3)",0.504 ± 0.0551 µM
same,"Papp at 30 min, 10 µM","[1]; rat, 10 μM on luminal side, read-out: apparent permeability (Papp)",76.4 ± 8.35 ×10⁻⁶ cm/s
Cc1cc(OCC(=O)O)cc(C)c1Cc1ccc(O)c(Cc2ccccc2)c1 [GC-24],selectivity for THRβ against THRα compared with GC-1,THRβ,ten-fold greater selectivity
"N[C@@H](Cc1cc(I)c(Oc2ccc(O)c(I)c2)c(I)c1)C(=O)O [T3, triiodothyronine]","Serum TC (Fig. 4a), individual mouse values","[2]; 0.1 µmol, HFD mice",158.333 and 124.25 and 113.833 and 130.625 and 129.792 and 168.458 and 110 and 105.208 and 104.375 and 153.458
same,"Serum TG (Fig. 4b), individual mouse values","[2]; 0.1 µmol, HFD mice",79.667 and 70.5 and 70.583 and 116.333 and 98 and 97.167 and 90.5 and 123.833 and 87.167 and 118.833
same,"Serum TC (Fig. 4a), group mean (Mean 2)","[2]; 0.1 µmol, HFD mice",129.8
same,"Serum TC (Fig. 4a), Mean Diff. ND vs. treatment (Tukey)",[2]; 0.1 µmol,49.59
same,"Serum TC (Fig. 4a), Mean Diff. Vehicle vs. treatment (Tukey)",[2]; 0.1 µmol,120.2
same,"Serum TC (Fig. 4a), individual mouse values","[2]; 1 µmol, HFD mice",78.333 and 92.5833 and 95.917 and 94.792 and 93.958 and 110.125 and 81.667 and 92.708 and 91.875 and 83.875
same,"Serum TG (Fig. 4b), individual mouse values","[2]; 1 µmol, HFD mice",109.75 and 118.917 and 137.25 and 189.75 and 144.75 and 162.25 and 110.583 and 122.25 and 108.917 and 100.583
same,"Serum TC (Fig. 4a), group mean (Mean 2)","[2]; 1 µmol, HFD mice",91.58
same,"Serum TC (Fig. 4a), Mean Diff. ND vs. treatment (Tukey)",[2]; 1 µmol,87.84
same,"Serum TC (Fig. 4a), Mean Diff. Vehicle vs. treatment (Tukey)",[2]; 1 µmol,158.5
same,"Mean Diff., ND vs. treated (Fig. 4b)",[2]; ND minus 0.1 µmol group,51.51
same,"Mean Diff., ND vs. treated (Fig. 4b)",[2]; ND minus 1 µmol group,16.27
same,"Mean Diff., Vehicle vs. treated (Fig. 4b)",[2]; Vehicle minus 0.1 µmol group,20.52
same,"Mean Diff., Vehicle vs. treated (Fig. 4b)",[2]; Vehicle minus 1 µmol group,-14.72
same,Mean (Fig. 4b),"[2]; 0.1 µmol, HFD mice",95.26
same,Mean (Fig. 4b),"[2]; 1 µmol, HFD mice",130.5
same,serum triglyceride level vs vehicle,[2]; [6],no significant difference
same,"Fig. 3b (weight of epididymal adipose tissue), group mean (Mean 2)","[3]; 0.1 µmol, HFD mice",1763
same,"Fig. 3b (weight of epididymal adipose tissue), Mean Diff. ND vs. treatment (Tukey)",[3]; 0.1 µmol,-1079
same,"Fig. 3b (weight of epididymal adipose tissue), Mean Diff. Vehicle vs. treatment (Tukey)",[3]; 0.1 µmol,1095
same,"Fig. 3b (weight of epididymal adipose tissue), group mean (Mean 2)","[3]; 1 µmol, HFD mice",1015
same,"Fig. 3b (weight of epididymal adipose tissue), Mean Diff. ND vs. treatment (Tukey)",[3]; 1 µmol,-331.6
same,"Fig. 3b (weight of epididymal adipose tissue), Mean Diff. Vehicle vs. treatment (Tukey)",[3]; 1 µmol,1843
same,"Epididymal adipose weight, individual mice (Fig. 3b)","[3]; HFD mice, 0.1 µmol dose group",1857.6 and 1829.3 and 1453.2 and 1516.6 and 740.6 and 1685.1 and 1862.2 and 1976.4 and 2365.6 and 2339.7
same,"Epididymal adipose weight, individual mice (Fig. 3b)","[3]; HFD mice, 1 µmol dose group",781.7 and 1090.4 and 983.4 and 966.1 and 975.7 and 1007.4 and 1167.4 and 1184.7 and 1023.2 and 969.5
same,weight of the epididymal adipose tissue vs vehicle,[3]; [6],decreased significantly
same,"Body weight, 95.00% CI of diff. ND vs. treated",[4]; 0.1 µmol dose group,-15.17 to -6.458
same,"Body weight, Mean Diff. ND vs. treated",[4]; 0.1 µmol dose group,-10.81
same,"Body weight, 95.00% CI of diff. Vehicle vs. treated",[4]; 0.1 µmol dose group,-0.6376 to 7.800
same,"Body weight, Mean Diff. Vehicle vs. treated",[4]; 0.1 µmol dose group,3.581
same,"Body weight, 95.00% CI of diff. ND vs. treated",[4]; 1 µmol dose group,-10.58 to -1.870
same,"Body weight, Mean Diff. ND vs. treated",[4]; 1 µmol dose group,-6.225
same,"Body weight, 95.00% CI of diff. Vehicle vs. treated",[4]; 1 µmol dose group,3.950 to 12.39
same,"Body weight, Mean Diff. Vehicle vs. treated",[4]; 1 µmol dose group,8.169
same,"Body weight, group mean (Fig. 3a)","[4]; HFD mice, 0.1 µmol dose group",39.33
same,"Body weight, individual mice (Fig. 3a)","[4]; HFD mice, 0.1 µmol dose group",37.99 and 36.19 and 32.32 and 43.27 and 39.51 and 44.21 and 39.97 and 39.21 and 40.58 and 40.07
same,"Body weight, group mean (Fig. 3a)","[4]; HFD mice, 1 µmol dose group",34.74
same,"Body weight, individual mice (Fig. 3a)","[4]; HFD mice, 1 µmol dose group",29.82 and 33.07 and 30.29 and 38.87 and 37.72 and 35.76 and 37.12 and 36.01 and 34.61 and 34.17
same,body weight vs vehicle (in words),"[4]; HFD mice, i.p. 0.1 µmol/kg day, 3 weeks",did not significantly reduce body weight
same,decrease of body weight compared to vehicle,"[4]; HFD mice, i.p. 1 µmol/kg day, 3 weeks",~ 20%
same,"Dio1 expression in the liver, individual animal values","[5]; 1µmol, one value per animal",3.359 and 3.177 and 2.594 and 3.891 and 4.465 and 3.761 and 2.009 and 5.092 and 4.047 and 3.355
same,"Ldlr expression in the liver, individual animal values","[5]; 1µmol, one value per animal",0.07802 and 0.2909 and 0.1661 and 1.188 and 1.197 and 0.8436 and 2.271 and 0.5624 and 0.08829 and 0.1717
same,"Me1 expression in the liver, individual animal values","[5]; 1µmol, one value per animal",1.618 and 1.709 and 1.627 and 3.524 and 2.735 and 3.173 and 4.935 and 5.075 and 3.984 and 2.564
same,"Pnpla2 expression in the liver, individual animal values","[5]; 1µmol, one value per animal",0.3078 and 2.165 and 2.21 and 1.997 and 2.671 and 3.066 and 2.607 and 3.3336 and 0.6308 and 1.108
same,"Srebp1c expression in the liver, individual animal values","[5]; 1µmol, one value per animal",0.06015 and 0.2255 and 0.1838 and 0.1704 and 0.1322 and 0.09864 and 0.3225 and 0.5342 and 0.08549 and 0.1455
same,"Thrsp expression in the liver, individual animal values","[5]; 1µmol, one value per animal",1.539 and 1.364 and 0.6114 and 1.153 and 1.565 and 1.274 and 1.191 and 0.8905 and 1.332 and 1.012
same,liver expression of Dio1 vs vehicle,[5]; [7],significantly upregulated
same,liver expression of Ldlr vs vehicle,[5]; [7],not significantly different
same,liver expression of Me1 vs vehicle,[5]; [7],significantly upregulated
same,liver expression of Srebp1c vs vehicle,[5]; [7],significantly lower
same,liver expression of Thrsp vs vehicle,[5]; [7],no significant difference
same,"Pnpla2, Dunn's multiple comparisons test, Mean rank diff. (Vehicle vs. compound)",[5]; [8],-12.5
same,"Srebp1c, Dunn's multiple comparisons test, Mean rank diff. (Vehicle vs. compound)",[5]; [8],17.87
same,"Pnpla2, Mean rank of treatment group (Mean rank 2)","[5]; liver gene expression, 1µmol dose group, Vehicle mean rank 8",20.5
same,"Srebp1c, Mean rank of treatment group (Mean rank 2)","[5]; liver gene expression, 1µmol dose group, Vehicle mean rank […]",15.8
